Earlier results on 2 compounds are cited in article PMC4608554 (Bioorganic & medicinal chemistry, 2015).

Each structure is given as a SMILES string.

For data set [1] the following is noted: 2:1 complex with Fe(III); cited from earlier work.
Data set [2] has as its system rats. The note with it: cited from earlier work.
The test system of data set [3] is iron-overloaded Cebus apella monkeys. The note with it: po, 150 µmol/kg, historical, ref 41 (1), ref 53 (2); cited from earlier work.
Data set [4] has as its system non-iron-overloaded, bile duct-cannulated rats. The note with it: rat, po, 150 µmol/kg; cited from earlier work.
Data set [5] concerns patients. Conditions: cited from earlier work.

Consider `C[C@]1(C(=O)O)CSC(c2ncccc2O)=N1` [compound 1, (S)-4,5-dihydro-2-(3-hydroxy-2-pyridinyl)-4-methyl-4-thiazolecarboxylic acid], for which the cumulative formation constant in data set [1] is 4 × 10^29. Further, the “renal toxicity in rats” value in data set [2] is reported as “unacceptable renal toxicity”. Further, in data set [3], the “Primate ICE (%)” value is listed as 16.1 ± 8.5%. Besides, the “Rodent ICE (%)” value in data set [4] is given as 5.5 ± 3.2%.
`C[C@]1(C(=O)O)CSC(c2ccc(O)cc2O)=N1` [compound 2, (S)-2-(2,4-dihydroxyphenyl)-4,5-dihydro-4-methyl-4-thiazolecarboxylic acid]: the tolerability in patients entry in data set [5] (5, 10, or 15 mg/kg/day once daily (s.i.d) for up to 12 weeks) was “well tolerated”. Moreover, the “renal toxicity in patients (increases in BUN and SCr)” value in data set [5] (b.i.d. 12.5 mg/kg (25 mg/kg/d), three patients after 4-5 weeks) is given as “unacceptable renal toxicity”.
